The test system of test [1] is splenic cells of Lewis rats. The test can be described thus: Test 2: Determination of T-cell growth inhibitor activity (T lymphocyte blastogenesis, Concanavalin A, AlamarBlue). The class given is cell-based. The conditions noted are these: Lewis rat splenic cells, 72 hours, AlamarBlue Assay, read-out: Test 2: T-cell growth inhibitory activity IC50. As to the method:
Test 2: Determination of T-Cell Growth Inhibitor Activity
The T lymphocyte blastogenesis test was performed in microtiter plates with each well containing 1.5×10^5 splenic cells of Lewis rats in 0.1 mL RPMI-1640 medium supplemented with 10% fetal bovine serum-(FBS), […] 2-mercaptoethanol, penicilln (100 units/mL) and streptomycin (100 μg/mL), to which Concanavalin A ([…]) was added. The cells were incubated at 37° C. in a humidified atmosphere of 5% CO2 for 72 hours. After the culture period, suppressive activities of the test compounds in T lymphocyte blastogenesis were quantified by AlamarBlue (trademark) Assay. The test samples were dissolved in DMSO and further diluted with RPMI-1640 medium and added to the culture. The activities of the test compounds were expressed as IC50.

The target in test [2] is human histone deacetylase. As to the kind of experiment: Test 1: Determination of histone deacetylase inhibitor activity ([3H]acetyl histone deacetylation). As to conditions: human histone deacetylase partially purified from Jurkat cells; [3H]acetyl-labeled histones, 25° C., 30 minutes; read-out: Test 1: HDAC inhibitory activity IC50. The class given is biochemical. The protocol: Test 1: Determination of Histone Deacetylase Inhibitor Activity
The partial purification of human histone deacetylase, the preparation of [^3H] acetyl histones, and the assay for histone deacetylase activity were performed basically according to the method as proposed by Yoshida et al. as follows.
Partial Purification of Human Histone Deacetylase
The human histone deacetylase was partially purified from human T cell leukemia Jurkat cells. Jurkat cells (5×10^8 cells) were suspended in 40 mL of the HDA buffer consisting of 15 mM potassium phosphate, pH 7.5, 5% glycerol and 0.2 mM EDTA. After homogenization, nuclei were collected by centrifugation (35,000×g, 10 min) and homogenized in 20 mL of the same buffer supplemented with 1 M (NH4)2SO4. The viscous homogenate was sonicated and clarified by centrifugation (35,000×g, 10 min), and the deacetylase was precipitated by raising the concentration of (NH4)2SO4 to 3.5 M. The precipitated protein was dissolved in 10 mL of the HDA buffer and dialyzed against 4 liters of the same buffer. The dialyzate was then loaded onto a DEAE-cellulose (Whatman DE52) column (25×85 mm) equilibrated with the same buffer and eluted with 300 mL of a linear gradient (0–0.6 M) of NaCl. A single peak of histone deacetylase activity appeared between 0.3 and 0.4 M NaCl.
Preparation of [^3H] Acetyl Histone
To obtain [^3H] acetyl-labeled histone as the substrate for the histone deacetylase assay, 1×10^8 cells of Jurkat in 20 mL of RPMI-1640 medium (supplemented with 10% FBS, penicillin (50 units/mL) and streptomycin (50 μg/mL)) were incubated with 300 MBq [^3H] sodium acetate in the presence of 5 mM sodium butyrate for 30 minutes in 5% CO2-95% air atmosphere at 37° C. in a 75 cm^2 flask, harvested into a centrifuge tube (50 mL), collected by centrifugation at 1000 rpm for 10 minutes, and washed once with phosphate-buffered saline. The washed cells were suspended in 15 mL of ice-cold lysis buffer (10 mM Tris-HCl, 50 mM sodium bisulfite, 1% Triton X-100, 10 mM MgCl2, 8.6% sucrose, pH 6.5). After Dounce homogenization (30 stroke), the nuclei were collected by centrifugation at 1000 rpm for 10 minutes, washed 3 times with 15 mL of the lysis buffer, and once with 15 mL of ice-cooled washing buffer (10 mM Tris-HCl, 13 mM EDTA, pH 7.4) successively. […]
For the standard assay, 10 μl of [^3H] acetyl-labeled histones were added to 90 μl of the enzyme fraction, and the mixture was incubated at 25° C. for 30 minutes. […] The released [^3H] acetic acid was extracted with 1 mL of ethyl acetate, and 0.9 mL of the solvent layer was taken into 10 mL of toluene scintillation solution for determination of radioactivity.

`O=C(/C=C/c1cccc(Cc2nc3ccccc3[nH]2)c1)NO` [Compound E6]: the IC50 in test [1] and in test [2] was 150 nM in each case.

For `O=C(/C=C/c1ccc(Cc2nc3ccccc3[nH]2)cc1)NO` [Compound E1], the 50% inhibitory concentration (IC50) in test [1] was 69 nM; in test [2], 28 nM.

`O=C(/C=C/c1ccc(CCc2nc3ccccc3[nH]2)cc1)NO` [Compound E3]: the half-maximal inhibitory concentration (IC50) in test [1] was 160 nM; in test [2], 140 nM.

As for `O=C(/C=C/c1ccc(C(Cc2ccccc2)c2nc3ccccc3n2Cc2ccccc2)cc1)NO` (centres unmarked) [Compound E5], the half-maximal inhibitory concentration (IC50) in test [1] came out at 310 nM; in test [2], 96 nM.

The values above are taken from patent US7135493B2, “HDAC inhibitor” (Astellas Pharma Inc., priority 2003, dated 2006).
